Measurements taken from publication PMC9270327 (Communications Biology, 2022).
Where a name gives a salt, the structure may show the parent alone. Read-outs that look alike come from different tables or passages of the source.

What was measured:
[1] = tested on: lentiviral pseudoparticles carrying SARS-CoV-2 Alpha (B.1.1.7) spike, Caco-2 cells; format: cell-based; settings: for IC50: Caco-2 cells, luciferase 2 days post transduction, read-out: IC50 pseudotyped lentivirus Alpha; for SARS-CoV-2 spike driven entry, Mean (0 nM = 100): Fig. 5b
[2] = tested on: lentiviral pseudoparticles carrying SARS-CoV-2 Beta (B.1.351) spike, Caco-2 cells; format: cell-based; settings: for IC50: Caco-2 cells, luciferase 2 days post transduction, read-out: IC50 pseudotyped lentivirus Beta; for SARS-CoV-2 spike driven entry, Mean (0 nM = 100): Fig. 5c
[3] = tested on: SARS-CoV-2 Wuhan-Hu-1, Caco-2 cells; format: cell-based; settings: for SARS-CoV-2 infection, Mean (0 nM = 100): Fig. 6a, Wuhan-Hu-1
[4] = target: TMPRSS2 (Homo sapiens, UniProt O15393); format: biochemical; design: purchased Creative BioMart (New York, USA) or LSBio (Seattle, USA); settings: for TMPRSS2 activity, Mean (Fig. 2a): normalized, 0 nM = 100
Chain of TMPRSS2 (O15393 whole entry): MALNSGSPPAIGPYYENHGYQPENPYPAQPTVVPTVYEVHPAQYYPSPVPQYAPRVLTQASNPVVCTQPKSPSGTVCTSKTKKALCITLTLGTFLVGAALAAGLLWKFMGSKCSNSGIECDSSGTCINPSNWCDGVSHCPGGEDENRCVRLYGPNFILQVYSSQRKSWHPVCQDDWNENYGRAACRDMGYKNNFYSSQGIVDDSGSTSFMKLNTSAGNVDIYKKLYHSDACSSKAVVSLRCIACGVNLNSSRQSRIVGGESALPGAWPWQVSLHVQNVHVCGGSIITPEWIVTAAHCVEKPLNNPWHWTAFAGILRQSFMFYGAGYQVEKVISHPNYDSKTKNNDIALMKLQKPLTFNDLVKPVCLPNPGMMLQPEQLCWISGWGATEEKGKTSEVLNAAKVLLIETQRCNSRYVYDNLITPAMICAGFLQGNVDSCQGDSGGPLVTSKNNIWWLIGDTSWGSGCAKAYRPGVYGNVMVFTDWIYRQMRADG
Description: Recombinant human TMPRSS2 was purchased from Creative BioMart (New York, USA) or LSBio (Seattle, USA), factor Xa was obtained from Bio-Techne GmbH (Wiesbaden, Germany). Recombinant human thrombin and matriptase protein were purchased from R&D Systems (Minneapolis, MN, USA).

[5] = tested on: Caco-2 cells; settings: Fig. 6e
[6] = read-out: IC50 SARS-CoV-2 Wuhan-Hu-1
[7] = read-out: IC50 SARS-CoV-2 Wuhan-Hu-1 (text)

Compound | IC50 [1] | SARS-CoV-2 spike driven entry, Mean (0 nM = 100) ([1]; compound 3.2 nM) | SARS-CoV-2 spike driven entry, Mean (0 nM = 100) ([1]; compound 16 nM) | SARS-CoV-2 spike driven entry, Mean (0 nM = 100) ([1]; compound 80 nM) | SARS-CoV-2 spike driven entry, Mean (0 nM = 100) ([1]; compound 400 nM) | SARS-CoV-2 spike driven entry, Mean (0 nM = 100) ([1]; compound 2000 nM) | SARS-CoV-2 spike driven entry, Mean (0 nM = 100) ([1]; compound 10000 nM) | SARS-CoV-2 spike driven entry, Mean (0 nM = 100) ([1]; compound 50000 nM) | IC50 [2] | SARS-CoV-2 spike driven entry, Mean (0 nM = 100) ([2]; compound 3.2 nM) | SARS-CoV-2 spike driven entry, Mean (0 nM = 100) ([2]; compound 16 nM) | SARS-CoV-2 spike driven entry, Mean (0 nM = 100) ([2]; compound 80 nM) | SARS-CoV-2 spike driven entry, Mean (0 nM = 100) ([2]; compound 400 nM) | SARS-CoV-2 spike driven entry, Mean (0 nM = 100) ([2]; compound 2000 nM) | SARS-CoV-2 spike driven entry, Mean (0 nM = 100) ([2]; compound 10000 nM) | SARS-CoV-2 spike driven entry, Mean (0 nM = 100) ([2]; compound 50000 nM) | IC50 [3, 6] | IC50 [3, 7] | TMPRSS2 activity, Mean (Fig. 2a) ([4]; 0.05 nM) | TMPRSS2 activity, Mean (Fig. 2a) ([4]; 0.5 nM) | also measured
ace-Arg-Pro-Arg-kbt [Compound 2] | 0.391 µM | 80.3695 | 86.8245 | 66.7955 | 63.0945 | 24.7885 | 4.5995 | 0.953 | 0.434 µM | 86.789 | 76.3745 | 81.347 | 58.1085 | 24.7225 | 3.543 | 0.923 | 4.57 µM | 4.6 µM | 92 | 90.3158 | SARS-CoV-2 infection, Mean (0 nM = 100) ([3]; compound 32 nM): 97.173; SARS-CoV-2 infection, Mean (0 nM = 100) ([3]; compound 160 nM): 99.3408; SARS-CoV-2 infection, Mean (0 nM = 100) ([3]; compound 800 nM): 95.9056; SARS-CoV-2 infection, Mean (0 nM = 100) ([3]; compound 4000 nM): 58.4381; SARS-CoV-2 infection, Mean (0 nM = 100) ([3]; compound 20000 nM): 1.12; SARS-CoV-2 infection, Mean (0 nM = 100) ([3]; compound 100000 nM): -2.857; TMPRSS2 activity, Mean (Fig. 2a) ([4]; 5 nM): 62.9474; TMPRSS2 activity, Mean (Fig. 2a) ([4]; 50 nM): 19.7895; TMPRSS2 activity, Mean (Fig. 2a) ([4]; 500 nM): 3.789; TMPRSS2 activity, Mean (Fig. 2a) ([4]; 5000 nM): 0.6316; TMPRSS2 activity, Mean (Fig. 2a) ([4]; 50000 nM): 0.4211; TMPRSS2 activity, Mean (Fig. 2a) ([4]; 500000 nM): -1.895; Ki ([4]; 30 min preincubation, substrate Boc-Gln-Ala-Arg-AMC, Ki from IC50 by Cheng–Prusoff): 0.0038 µM; fold more active than FOY-251 against isolated TMPRSS2 ([4]; ratio of Ki values): 2–3 fold
CN(C)C(=O)COC(=O)Cc1ccc(OC(=O)c2ccc(NC(=N)N)cc2)cc1 [CM, camostat mesylate, reference compound] | 0.0987 µM | 71.733 | 72.519 | 51.5305 | 39.483 | 18.526 | 4.853 | 1.159 | 0.156 µM | 69.473 | 73.209 | 64.2815 | 45.014 | 20.732 | 4.9565 | 3.2315 | 3.62 µM | 3.6 µM | 101.705 | 66.4773 | Cell viability, Mean (0 nM = 100) ([5]; compound 0.26 nM): 104.56; Cell viability, Mean (0 nM = 100) ([5]; compound 1.28 nM): 104.124; Cell viability, Mean (0 nM = 100) ([5]; compound 6.4 nM): 104.38; Cell viability, Mean (0 nM = 100) ([5]; compound 32 nM): 101.009; Cell viability, Mean (0 nM = 100) ([5]; compound 160 nM): 106.562; Cell viability, Mean (0 nM = 100) ([5]; compound 800 nM): 101.849; Cell viability, Mean (0 nM = 100) ([5]; compound 4000 nM): 104.127; Cell viability, Mean (0 nM = 100) ([5]; compound 20000 nM): 103.706; Cell viability, Mean (0 nM = 100) ([5]; compound 100000 nM): 93.2448; TMPRSS2 activity, Mean (Fig. 2a) ([4]; 5 nM): 16.1932; TMPRSS2 activity, Mean (Fig. 2a) ([4]; 50 nM): 0.2841; TMPRSS2 activity, Mean (Fig. 2a) ([4]; 500 nM): 0.5682; TMPRSS2 activity, Mean (Fig. 2a) ([4]; 5000 nM): -0.142; TMPRSS2 activity, Mean (Fig. 2a) ([4]; 50000 nM): 0.2841; TMPRSS2 activity, Mean (Fig. 2a) ([4]; 500000 nM): -0.4261
